The values below come from article PMC4414715 (Chemico-biological interactions, 2014).

The target of test [1] is T1, ALDH1A2 (Homo sapiens, UniProt O94788).
T1 sequence (O94788 1-518): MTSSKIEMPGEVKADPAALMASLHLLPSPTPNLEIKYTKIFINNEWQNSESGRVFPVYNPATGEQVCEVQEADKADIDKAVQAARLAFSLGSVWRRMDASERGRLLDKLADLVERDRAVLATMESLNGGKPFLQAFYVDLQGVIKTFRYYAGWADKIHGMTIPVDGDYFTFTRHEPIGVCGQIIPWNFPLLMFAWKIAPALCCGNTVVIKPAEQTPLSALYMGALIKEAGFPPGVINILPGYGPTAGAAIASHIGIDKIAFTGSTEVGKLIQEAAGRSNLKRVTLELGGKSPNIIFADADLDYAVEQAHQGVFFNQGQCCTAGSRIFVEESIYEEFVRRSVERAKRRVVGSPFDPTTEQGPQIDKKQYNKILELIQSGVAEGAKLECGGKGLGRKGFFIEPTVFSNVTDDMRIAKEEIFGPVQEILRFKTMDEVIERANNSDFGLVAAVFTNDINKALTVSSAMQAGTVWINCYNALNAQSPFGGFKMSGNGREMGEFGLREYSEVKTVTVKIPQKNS
Briefly: Q-TOF mass spectrometry of enzyme modification by DEAB. The format is binding. The note with it: 5.0 μM ALDH1A2, 10 μM DEAB, without NAD+, 1 h.

The target in test [2] is T1, ALDH1A2. Briefly: Wavelength scans to monitor DEAB oxidation. It counts as biochemical. The settings on record: DEAB as substrate of ALDH1A2.
In test [3] the target is T2, ALDH5A1 (Homo sapiens, UniProt P51649).
T2 sequence (P51649 48-535): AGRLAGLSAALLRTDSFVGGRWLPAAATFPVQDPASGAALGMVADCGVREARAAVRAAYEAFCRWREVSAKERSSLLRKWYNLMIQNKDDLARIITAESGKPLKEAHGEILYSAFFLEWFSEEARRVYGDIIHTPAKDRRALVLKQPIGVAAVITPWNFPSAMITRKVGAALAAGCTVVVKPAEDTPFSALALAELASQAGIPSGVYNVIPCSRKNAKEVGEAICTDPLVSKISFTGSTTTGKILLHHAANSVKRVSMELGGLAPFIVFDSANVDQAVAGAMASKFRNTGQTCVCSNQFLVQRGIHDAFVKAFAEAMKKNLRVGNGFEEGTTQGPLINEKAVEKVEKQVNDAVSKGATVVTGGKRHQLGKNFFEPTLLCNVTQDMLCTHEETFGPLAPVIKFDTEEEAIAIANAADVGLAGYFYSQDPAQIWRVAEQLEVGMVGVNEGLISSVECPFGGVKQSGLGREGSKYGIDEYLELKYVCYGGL
Briefly: DEAB inhibition and IC50 determination.

The target of test [4] is T1, ALDH1A2. The test is described as follows: Kinetics of irreversible. It counts as biochemical.
The target of test [5] is T1, ALDH1A2. The test is described as follows: DEAB inhibition and IC50 determination. It counts as biochemical.
The target of test [6] is T3, ALDH4A1 (Homo sapiens, UniProt P30038).
T3 sequence (P30038 25-563): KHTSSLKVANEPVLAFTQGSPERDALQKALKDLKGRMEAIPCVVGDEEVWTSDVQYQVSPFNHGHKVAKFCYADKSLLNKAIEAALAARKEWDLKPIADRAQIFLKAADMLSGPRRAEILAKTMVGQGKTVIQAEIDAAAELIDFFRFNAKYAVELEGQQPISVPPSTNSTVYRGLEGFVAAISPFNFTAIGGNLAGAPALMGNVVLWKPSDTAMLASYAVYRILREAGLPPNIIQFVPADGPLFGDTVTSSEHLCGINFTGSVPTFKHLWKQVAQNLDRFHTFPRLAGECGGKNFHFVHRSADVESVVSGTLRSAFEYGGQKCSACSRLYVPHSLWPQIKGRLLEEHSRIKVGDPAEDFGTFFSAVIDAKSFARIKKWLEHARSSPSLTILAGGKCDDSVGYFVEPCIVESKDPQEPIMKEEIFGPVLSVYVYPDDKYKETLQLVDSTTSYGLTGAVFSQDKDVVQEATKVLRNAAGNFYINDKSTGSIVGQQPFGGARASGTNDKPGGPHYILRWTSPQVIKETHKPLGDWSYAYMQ
Briefly: DEAB inhibition and IC50 determination.

The target of test [7] is T2, ALDH5A1. Briefly: Wavelength scans to monitor DEAB oxidation. The format is biochemical. The note with it: DEAB as substrate of ALDH5A1.
The target in test [8] is T1, ALDH1A2. Briefly: Effect of dialysis on DEAB-induced inhibition. It counts as biochemical.
Test [9] has as its target T4, ALDH3A1 (Homo sapiens, UniProt P30838).
T4 sequence (P30838 1-453): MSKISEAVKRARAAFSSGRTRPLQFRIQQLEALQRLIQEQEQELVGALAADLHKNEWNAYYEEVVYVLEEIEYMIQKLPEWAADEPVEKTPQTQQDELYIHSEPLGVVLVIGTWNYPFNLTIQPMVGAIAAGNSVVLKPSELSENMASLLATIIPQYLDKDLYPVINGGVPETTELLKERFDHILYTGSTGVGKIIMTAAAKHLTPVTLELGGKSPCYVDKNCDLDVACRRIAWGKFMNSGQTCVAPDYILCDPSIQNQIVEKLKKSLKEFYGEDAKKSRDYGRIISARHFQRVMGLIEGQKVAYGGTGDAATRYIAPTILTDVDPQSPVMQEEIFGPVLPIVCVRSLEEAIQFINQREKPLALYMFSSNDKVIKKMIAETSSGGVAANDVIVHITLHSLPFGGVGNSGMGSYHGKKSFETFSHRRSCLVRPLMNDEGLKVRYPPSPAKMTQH
The test is described as follows: Enzyme kinetics with DEAB as a substrate. The note with it: ALDH3A1 oxidation of the substrate.

In test [10] the target is T5, ALDH1L1 (Rattus norvegicus, UniProt P28037).
T5 sequence (P28037 417-902 limits assumed): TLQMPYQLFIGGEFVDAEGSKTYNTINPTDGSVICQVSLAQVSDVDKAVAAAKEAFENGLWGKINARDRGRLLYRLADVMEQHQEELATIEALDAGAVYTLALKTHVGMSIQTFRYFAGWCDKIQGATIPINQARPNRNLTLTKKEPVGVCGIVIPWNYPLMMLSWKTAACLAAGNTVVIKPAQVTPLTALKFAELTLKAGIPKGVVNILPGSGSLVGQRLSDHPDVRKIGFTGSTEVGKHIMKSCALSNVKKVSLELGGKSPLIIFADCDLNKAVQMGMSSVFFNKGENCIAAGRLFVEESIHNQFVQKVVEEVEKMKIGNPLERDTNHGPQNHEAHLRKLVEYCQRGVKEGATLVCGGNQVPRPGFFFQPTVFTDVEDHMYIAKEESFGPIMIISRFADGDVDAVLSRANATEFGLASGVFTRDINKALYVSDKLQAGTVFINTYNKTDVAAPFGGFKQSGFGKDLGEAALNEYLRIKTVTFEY
The test is described as follows: DEAB inhibition and IC50 determination.

Test [11] deals with T6, ALDH1B1 (Homo sapiens, UniProt P30837).
T6 sequence (P30837 18-517): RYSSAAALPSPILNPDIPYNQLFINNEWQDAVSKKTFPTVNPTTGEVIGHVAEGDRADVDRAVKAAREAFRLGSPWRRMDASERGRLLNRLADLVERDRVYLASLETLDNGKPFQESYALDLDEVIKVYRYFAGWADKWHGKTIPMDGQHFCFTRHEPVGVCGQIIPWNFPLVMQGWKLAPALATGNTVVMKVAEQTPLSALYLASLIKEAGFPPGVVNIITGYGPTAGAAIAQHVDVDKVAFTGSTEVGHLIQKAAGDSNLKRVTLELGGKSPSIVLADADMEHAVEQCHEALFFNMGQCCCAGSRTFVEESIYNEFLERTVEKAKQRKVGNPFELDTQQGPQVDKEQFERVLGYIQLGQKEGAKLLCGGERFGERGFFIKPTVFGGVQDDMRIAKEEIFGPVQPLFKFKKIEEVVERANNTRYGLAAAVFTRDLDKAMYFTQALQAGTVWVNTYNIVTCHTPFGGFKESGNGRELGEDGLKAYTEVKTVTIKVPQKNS
Briefly: Wavelength scans to monitor DEAB oxidation. The format is biochemical. The note with it: DEAB as substrate of ALDH1B1.

Test [12] deals with T7, ALDH1A3 (Homo sapiens, UniProt P47895).
T7 sequence (P47895 1-512): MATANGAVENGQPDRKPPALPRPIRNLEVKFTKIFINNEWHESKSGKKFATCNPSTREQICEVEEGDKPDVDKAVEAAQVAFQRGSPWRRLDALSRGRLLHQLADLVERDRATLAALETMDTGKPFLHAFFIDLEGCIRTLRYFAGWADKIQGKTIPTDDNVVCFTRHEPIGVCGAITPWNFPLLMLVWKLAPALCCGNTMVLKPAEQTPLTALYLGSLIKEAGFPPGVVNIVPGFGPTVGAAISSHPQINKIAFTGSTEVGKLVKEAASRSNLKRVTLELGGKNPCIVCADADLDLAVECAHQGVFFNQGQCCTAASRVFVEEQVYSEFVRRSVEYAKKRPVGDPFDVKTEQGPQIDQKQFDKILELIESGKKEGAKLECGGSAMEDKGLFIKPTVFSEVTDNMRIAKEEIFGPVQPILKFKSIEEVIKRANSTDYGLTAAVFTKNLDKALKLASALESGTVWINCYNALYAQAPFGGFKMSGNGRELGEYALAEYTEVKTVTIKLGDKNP
Briefly: DEAB inhibition and IC50 determination. It counts as biochemical.

In test [13] the target is T7, ALDH1A3. Briefly: Wavelength scans to monitor DEAB oxidation. The format is biochemical. The settings on record: DEAB as substrate of ALDH1A3.
The target in test [14] is T4, ALDH3A1. Briefly: Wavelength scans to monitor DEAB oxidation. The format is biochemical. The note with it: DEAB as substrate of ALDH3A1.
Test [15] has as its target T6, ALDH1B1. The test is described as follows: DEAB inhibition and IC50 determination. The format is biochemical.
Test [16] has as its target T5, ALDH1L1. Briefly: Wavelength scans to monitor DEAB oxidation. It counts as biochemical. The note with it: DEAB as substrate of ALDH1L1.
In test [17] the target is T3, ALDH4A1. Briefly: Wavelength scans to monitor DEAB oxidation. The format is biochemical. The settings on record: DEAB as substrate of ALDH4A1.

Molecules are shown by their SMILES.

As a reminder, the IC50 is the midpoint of a concentration-inhibition curve. High values mean weaker potency, low ones greater potency. One may read the Km as the concentration of substrate that gives half-maximal velocity. For `CCN(CC)c1ccc(C=O)cc1` [DEAB], the “fraction of enzyme with DEAB bound” value on ALDH1A2 [1] is on record as “approximately one-third”. In addition, the Substrate result at ALDH1A2 [2] is “No”; at ALDH5A1 [7] it was “Yes (slow)”; on ALDH1B1 [11] it was “Yes (slow)”; at ALDH1A3 [13], “Yes (slow)”; on ALDH3A1 [14], “Yes”; on ALDH1L1 [16], “No”. For the same molecule, on ALDH4A1 [17], the Substrate result was “No”. Besides, the concentration for half-maximal inhibition (IC50) on ALDH5A1 [3] was 13 ± 0.5 µM; at ALDH1A2 [5], 1200 ± 100 nM; at ALDH4A1 [6], > 20 µM; on ALDH1L1 [10] it was > 20 µM; at ALDH1A3 [12], 3 ± 0.3 µM; against ALDH1B1 [15] it was 1200 ± 100 nM. In addition, the Mode of inhibition result on ALDH1A2 [4] is recorded as “Covalent inhibitor”. Moreover, at ALDH1A2 [8] (0.5 h, pH 7.5, read-out: activity recovered after dialysis), the activity at 100 µM came out at 75%. For the same molecule, on ALDH1A2 [8] (ALDH1A2, pre-incubated with DEAB and NAD+, dialyzed 4 h), the “recovery of enzymatic activity after dialysis” value is “neither the ALDH2 nor the ALDH1A2 samples regained enzymatic activity”. The Km on ALDH3A1 [9] was 5.6 ± 0.7 µM.
